Results on four compounds are retold here after patent US10597388B2, “Pyridazinone herbicides” (FMC CORPORATION, priority 2014, dated 2020).

What all share (test): Test A greenhouse herbicide test, pre- and postemergence
Common to all, as to type: in vivo

The test system of assay [1] is corn (Zea mays). Particulars: Zea mays, 240 h; for Corn plant response rating (crop injury, 0 = no effect, 100 = complete kill) at 125 g/ha / plant injury at 500 g/ha: post-emergence, Postemergence; for Corn plant response rating (crop injury, 0 = no effect, 100 = complete kill) at 125 g/ha: visual rating after approx. 10 d, 0 to 100 scale (0 no effect, 100 complete control); for plant injury at 500 g/ha: 0 is no effect, 100 is complete control. The essentials: (§1)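 Seeds sown in loam–sand blend got a preemergence directed soil spray of compound in non-phytotoxic solvent with surfactant. Postemergence treatment was given at 2–10 cm, one- to two-leaf stage. After ~10 d in greenhouse, injury was rated visually vs untreated controls, 0 (no effect) to 100 (complete control).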

The subject of assay [2] is foxtail, giant (giant foxtail, Setaria faberii). As to conditions: Setaria faberi, 240 h; for pest or weed control at 125 g/ha: 125 g ai/ha; for pest or weed control at 500 g/ha: 500 g ai/ha, 0 to 100 scale. The essentials:
as §1

For assay [3], the system named is pigweed (Amaranthus retroflexus). Particulars: Amaranthus retroflexus, 240 h; for pest or weed control at 125 g/ha: 125 g ai/ha; for pest or weed control at 500 g/ha: 500 g ai/ha, 0 to 100 scale. The essentials:
as §1

Assay [4] concerns wheat (Triticum aestivum). As to conditions: Triticum aestivum, 240 h; for plant injury at 125 g/ha: 125 g ai/ha; for plant injury at 500 g/ha: 500 g ai/ha, 0 to 100 scale. The method in brief: as §1
Assay [5] relates to kochia (Kochia scoparia). Particulars: Bassia scoparia, 240 h; for pest or weed control at 125 g/ha: 125 g ai/ha; for pest or weed control at 500 g/ha: 500 g ai/ha, 0 to 100 scale. The method in brief:
as §1

Assay [6] has as its system ragweed (common ragweed, Ambrosia elatior). Particulars: Ambrosia artemisiifolia, 240 h; for pest or weed control at 125 g/ha: 125 g ai/ha; for pest or weed control at 500 g/ha: 500 g ai/ha, 0 to 100 scale. The essentials: as §1
In assay [7] the test system is ryegrass, Italian (Italian ryegrass, Lolium multiflorum). Particulars: Lolium multiflorum, 240 h; for pest or weed control at 125 g/ha: 125 g ai/ha; for pest or weed control at 500 g/ha: 500 g ai/ha, 0 to 100 scale. The method in brief:
as §1

Where [8] appears, read: 500 g ai/ha, 0 to 100 scale, read-out: Corn plant response rating.
[9] abbreviates: post-emergence, Postemergence, visual rating after approx. 10 d, 0 to 100 scale (0 no effect, 100 complete control), read-out: Plant response rating, Foxtail, Giant.
The mark [10] stands for this setting: post-emergence, Postemergence, 0 is no effect, 100 is complete control, read-out: Foxtail, Giant plant response rating.
Where [11] appears, read: pre-emergence, Preemergence, 0 to 100 scale where 0 is no effect and 100 is complete control, read-out: Foxtail, Giant plant response rating.
The mark [12] stands for this setting: pre-emergence, Preemergence, 0 no effect, 100 complete control, read-out: Plant response rating, Foxtail, Giant.
The mark [13] stands for this setting: post-emergence, Postemergence, visual rating after approx. 10 d, 0 to 100 scale (0 no effect, 100 complete control), read-out: Plant response rating, Pigweed.
The mark [14] stands for this setting: post-emergence, Postemergence, 0 is no effect, 100 is complete control, read-out: Pigweed plant response rating.
[15] abbreviates: pre-emergence, Preemergence, 0 to 100 scale where 0 is no effect and 100 is complete control, read-out: Pigweed plant response rating.
Where [16] appears, read: pre-emergence, Preemergence, 0 no effect, 100 complete control, read-out: Plant response rating, Pigweed.
[17] abbreviates: post-emergence, Postemergence, visual rating after approx. 10 d, 0 to 100 scale (0 no effect, 100 complete control), read-out: Plant response rating, Wheat.
[18] abbreviates: post-emergence, Postemergence, 0 is no effect, 100 is complete control, read-out: Wheat plant response rating.
The mark [19] stands for this setting: post-emergence, Postemergence, visual rating after approx. 10 d, 0 to 100 scale (0 no effect, 100 complete control), read-out: Plant response rating, Kochia.
The mark [20] stands for this setting: post-emergence, Postemergence, 0 is no effect, 100 is complete control, read-out: Kochia plant response rating.
The mark [21] stands for this setting: pre-emergence, Preemergence, 0 to 100 scale where 0 is no effect and 100 is complete control, read-out: Kochia plant response rating.
Where [22] appears, read: pre-emergence, Preemergence, 0 no effect, 100 complete control, read-out: Plant response rating, Kochia.
The mark [23] stands for this setting: post-emergence, Postemergence, visual rating after approx. 10 d, 0 to 100 scale (0 no effect, 100 complete control), read-out: Plant response rating, Ragweed.
[24] abbreviates: post-emergence, Postemergence, 0 is no effect, 100 is complete control, read-out: Ragweed plant response rating.
The mark [25] stands for this setting: pre-emergence, Preemergence, 0 to 100 scale where 0 is no effect and 100 is complete control, read-out: Ragweed plant response rating.
The mark [26] stands for this setting: pre-emergence, Preemergence, 0 no effect, 100 complete control, read-out: Plant response rating, Ragweed.
Where [27] appears, read: post-emergence, Postemergence, visual rating after approx. 10 d, 0 to 100 scale (0 no effect, 100 complete control), read-out: Plant response rating, Ryegrass, Italian.
[28] abbreviates: post-emergence, Postemergence, 0 is no effect, 100 is complete control, read-out: Ryegrass, Italian plant response rating.
Where [29] appears, read: pre-emergence, Preemergence, 0 to 100 scale where 0 is no effect and 100 is complete control, read-out: Ryegrass, Italian plant response rating.
Setting [30] is: pre-emergence, Preemergence, 0 no effect, 100 complete control, read-out: Plant response rating, Ryegrass, Italian.

Read-outs that look alike come from different tables or passages of the source.

`Cc1nn(C)c(=O)c(-c2c(C)oc3c(C)cccc23)c1O` [Compound 9, 4-(2,7-dimethyl-3-benzofuranyl)-5-hydroxy-2,6-dimethyl-3(2H)-pyridazinone] displayed a Corn plant response rating (crop injury, 0 = no effect, 100 = complete kill) at 125 g/ha in assay [1] (125 g ai/ha) of 0%. For the same compound, the plant injury at 500 g/ha in assay [1] (setting [8]) was found to be 0%; in assay [4] (setting [18]), 0%; in assay [4] (pre-emergence, Preemergence, 0 no effect, 100 complete control, read-out: Plant response rating, Wheat), 0%. In addition, the plant injury at 125 g/ha in assay [1] (pre-emergence, Preemergence, 125 g ai/ha, 0 to 100 scale where 0 is no effect and 100 is complete control, read-out: Corn plant response rating) worked out at 0%; in assay [4] (setting [17]), 0%; in assay [4] (pre-emergence, Preemergence, 0 to 100 scale where 0 is no effect and 100 is complete control, read-out: Wheat plant response rating), 0%. This compound returned a Corn plant response rating (crop injury, 0 = no effect, 100 = complete kill) at 500 g/ha in assay [1] (pre-emergence, Preemergence, 500 g ai/ha, 0 to 100 scale, 0 no effect, 100 complete control) of 0%. For the same compound, the pest or weed control at 125 g/ha in assay [2] (setting [9]) came to 10%; in assay [2] (setting [11]), 70%; in assay [3] (setting [13]) it was 0%; in assay [3] (setting [15]) it was 0%. For the same compound, the pest or weed control at 500 g/ha in assay [2] (setting [10]) came to 90%; in assay [2] (setting [12]), 100%; in assay [3] (setting [14]), 0%; in assay [3] (setting [16]) it was 0%.
With `Cc1cc(C)c2oc(C)c(-c3c(O)c(C)nn(C)c3=O)c2c1` [Compound 12, 5-hydroxy-2,6-dimethyl-4-(2,5,7-trimethyl-3-benzofuranyl)-3(2H)-pyridazinone], the Corn plant response rating (crop injury, 0 = no effect, 100 = complete kill) at 125 g/ha in assay [1] (125 g ai/ha) was found to be 0%. Further, the plant injury at 500 g/ha in assay [1] (setting [8]) and in assay [4] (setting [18]) was 0% throughout. Also, the pest or weed control at 125 g/ha stood at 10% in assay [2] (setting [9]); 20% in assay [2] (setting [11]); 0% in assay [5] (setting [19]); 0% in assay [5] (setting [21]); 30% in assay [3] (setting [13]); 10% in assay [3] (setting [15]). The pest or weed control at 125 g/ha in assay [6] (setting [23]) stood at 10%; in assay [6] (setting [25]) it was 0%; in assay [7] (setting [27]), 60%; in assay [7] (setting [29]), 20%. Also, the pest or weed control at 500 g/ha in assay [2] (setting [10]) turned out to be 70%; in assay [2] (setting [12]) it was 90%; in assay [5] (setting [20]), 60%; in assay [5] (setting [22]), 10%; in assay [3] (setting [14]), 50%; in assay [3] (setting [16]), 60%. Also, the pest or weed control at 500 g/ha is 70% in assay [6] (setting [24]), 30% in assay [6] (setting [26]), 70% in assay [7] (setting [28]) and 50% in assay [7] (setting [30]). Moreover, the plant injury at 125 g/ha in assay [4] (setting [17]) was 0%.
In the case of `CC(=O)Oc1c(C)nn(C)c(=O)c1-c1c(C)oc2c(C)cccc12` [Compound 15, 5-(acetyloxy)-4-(2,7-dimethyl-3-benzofuranyl)-2,6-dimethyl-3(2H)-pyridazinone], the Corn plant response rating (crop injury, 0 = no effect, 100 = complete kill) at 125 g/ha in assay [1] (125 g ai/ha) was determined as 0%. Moreover, the values for the plant injury at 500 g/ha in assay [1] (setting [8]) and in assay [4] (setting [18]) were 20% and 0%, respectively. The pest or weed control at 125 g/ha in assay [2] (setting [9]) was 70%; in assay [2] (setting [11]) it was 10%; in assay [5] (setting [19]), 50%; in assay [5] (setting [21]), 0%; in assay [3] (setting [13]), 0%; in assay [3] (setting [15]), 0%. In addition, the pest or weed control at 125 g/ha in assay [6] (setting [23]) turned out to be 50%; in assay [6] (setting [25]) it was 0%; in assay [7] (setting [27]) it was 50%; in assay [7] (setting [29]), 50%. The pest or weed control at 500 g/ha stood at 90% in assay [2] (setting [10]); 70% in assay [2] (setting [12]); 50% in assay [5] (setting [20]); 0% in assay [5] (setting [22]); 0% in assay [3] (setting [14]); 0% in assay [3] (setting [16]). The pest or weed control at 500 g/ha in assay [6] (setting [24]) worked out at 50%; in assay [6] (setting [26]) it was 30%; in assay [7] (setting [28]), 90%; in assay [7] (setting [30]), 100%. Moreover, in assay [4] (setting [17]), the plant injury at 125 g/ha is 0%.
On to `CCc1sc2cc(C)cc(C)c2c1-c1c(O)c(C)nn(C)c1=O` [Compound 19, 4-(2-ethyl-4,6-dimethylbenzo[b]thien-3-yl)-5-hydroxy-2,6-dimethyl-3(2H)-pyridazinone], for which the Corn plant response rating (crop injury, 0 = no effect, 100 = complete kill) at 125 g/ha in assay [1] (125 g ai/ha) was 0%. The plant injury at 500 g/ha in assay [1] (setting [8]) and in assay [4] (setting [18]) was 0% each time. Moreover, the pest or weed control at 125 g/ha in assay [2] (setting [9]) was found to be 20%; in assay [2] (setting [11]), 0%; in assay [5] (setting [19]), 0%; in assay [5] (setting [21]), 0%; in assay [3] (setting [13]), 0%; in assay [3] (setting [15]), 0%. The pest or weed control at 125 g/ha in assay [6] (setting [23]), in assay [6] (setting [25]), in assay [7] (setting [27]) and in assay [7] (setting [29]) was 0% each time. In addition, the pest or weed control at 500 g/ha in assay [2] (setting [10]) is 60%; in assay [2] (setting [12]) it was 0%; in assay [5] (setting [20]), 0%; in assay [5] (setting [22]), 0%; in assay [3] (setting [14]), 0%; in assay [3] (setting [16]), 0%. Moreover, the pest or weed control at 500 g/ha in assay [6] (setting [24]) was 0%; in assay [6] (setting [26]), 20%; in assay [7] (setting [28]), 0%; in assay [7] (setting [30]) it was 0%. Also, the plant injury at 125 g/ha in assay [4] (setting [17]) turned out to be 0%.
